Test [1] concerns the target T1, human orexin 2 receptor (Homo sapiens (Human), UniProt O43614). Briefly: Human orexin 2 receptor radioligand binding ([3H]EMPA competition, HEK293 cells). The conditions noted are these: HEK293 cells expressing human orexin-2 receptor, read-out: OR 2 Ki.
The target of test [2] is T1, human orexin 2 receptor. Briefly: Human orexin 2 receptor Ca2+ mobilization assay (FLIPR, PFSK cells, orexin B 100 nM). It counts as cell-based. The following applies: modified Cheng-Prusoff correction, read-out: OR 2 Kb.

Data on 31 compounds can be found in US9586962B2, “Disubstituted octahydropyrrolo [3,4-C] pyrroles as orexin receptor modulators” (Janssen Pharmaceutica NV, priority 2011, dated 2017).

T1 sequence (O43614 whole entry): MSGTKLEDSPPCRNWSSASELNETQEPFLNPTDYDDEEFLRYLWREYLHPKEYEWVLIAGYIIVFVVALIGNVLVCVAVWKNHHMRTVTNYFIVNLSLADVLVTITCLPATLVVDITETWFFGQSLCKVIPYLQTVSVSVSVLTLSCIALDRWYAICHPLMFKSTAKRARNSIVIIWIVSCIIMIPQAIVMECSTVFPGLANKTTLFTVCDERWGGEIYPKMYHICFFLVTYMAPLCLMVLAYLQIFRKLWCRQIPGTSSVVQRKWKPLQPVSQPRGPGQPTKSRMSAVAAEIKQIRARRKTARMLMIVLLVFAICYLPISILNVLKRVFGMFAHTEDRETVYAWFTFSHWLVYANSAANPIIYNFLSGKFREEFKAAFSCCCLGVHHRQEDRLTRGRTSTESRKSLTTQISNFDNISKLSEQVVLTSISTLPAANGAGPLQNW

On to `Cc1noc(-c2c(F)cccc2C(=O)N2CC3CN(c4ncc(F)c(C)n4)CC3C2)n1` (centres unmarked) [Example 440, 2-{[3-Fluoro-2-(3-methyl-1,2,4-oxadiazol-5-yl)phenyl]carbonyl}-5-(5-fluoro-4-methylpyrimidin-2-yl)octahydropyrrolo[3,4-c]pyrrole], for which the Ki on human orexin 2 receptor [1] was determined as 64 nM. Also, the Kb at human orexin 2 receptor [2] worked out at 15 nM.

With `Cc1nc(N(C)C)cc(N2CC3CN(C(=O)c4ccc(F)cc4-n4nccn4)CC3C2)n1` (centres unmarked) [Example 417, 6-[5-{[4-Fluoro-2-(2H-1,2,3-triazol-2-yl)phenyl]carbonyl}hexahydropyrrolo[3,4-c]pyrrol-2(1H)-yl]-N,N,2-trimethylpyrimidin-4-amine], at human orexin 2 receptor [1], the Ki was 62 nM.

`Cc1nc(N(C)C)cc(N2CC3CN(C(=O)c4c(F)cccc4-n4nccn4)CC3C2)n1` (centres unmarked) [Example 418, 6-[5-{[2-Fluoro-6-(2H-1,2,3-triazol-2-yl)phenyl]carbonyl}hexahydropyrrolo[3,4-c]pyrrol-2(1H)-yl]-N,N,2-trimethylpyrimidin-4-amine]: on human orexin 2 receptor [1], the Ki turned out to be 55 nM.

Turning to `Cc1ccc(-c2ncccn2)c(C(=O)N2CC3CN(c4nc(C)c(C)c(C)n4)CC3C2)n1` (centres unmarked) [Example 445, 2-[(6-Methyl-3-pyrimidin-2-ylpyridin-2-yl)carbonyl]-5-(4,5,6-trimethylpyrimidin-2-yl)octahydropyrrolo[3,4-c]pyrrole], the Ki at human orexin 2 receptor [1] was 27 nM.

As for `CCCOc1ccc(C)cc1C(=O)N1CC2CN(c3cc(N(C)C)nc(C)n3)CC2C1` (centres unmarked) [Example 430, N,N,2-Trimethyl-6-{5-[(5-methyl-2-propoxyphenyl)carbonyl]hexahydropyrrolo[3,4-c]pyrrol-2(1H)-yl}pyrimidin-4-amine], at human orexin 2 receptor [1], the Ki worked out at 270 nM.

For `Cc1cc(C)nc(N2CC3CN(C(=O)c4c(F)cccc4-c4ncco4)CC3C2)n1` (centres unmarked) [Example 491, 2-(4,6-Dimethylpyrimidin-2-yl)-5-{[2-fluoro-6-(1,3-oxazol-2-yl)phenyl]carbonyl}octahydropyrrolo[3,4-c]pyrrole], the Ki on human orexin 2 receptor [1] was found to be 16 nM.

As to `CCCOc1ccc(C)nc1C(=O)N1CC2CN(c3cc(N(C)C)nc(C)n3)CC2C1` (centres unmarked) [Example 424, N,N,2-Trimethyl-6-{5-[(6-methyl-3-propoxypyridin-2-yl)carbonyl]hexahydropyrrolo[3,4-c]pyrrol-2(1H)-yl}pyrimidin-4-amine], the Ki on human orexin 2 receptor [1] worked out at 1160 nM.

On to `Cc1cc(C)nc(N2CC3CN(C(=O)c4cccc(F)c4-c4nnc[nH]4)CC3C2)n1` (centres unmarked) [Example 432, 2-(4,6-Dimethylpyrimidin-2-yl)-5-{[3-fluoro-2-(1H-1,2,4-triazol-5-yl)phenyl]carbonyl}octahydropyrrolo[3,4-c]pyrrole], for which, at human orexin 2 receptor [1], the Ki came to 23 nM.

With `COc1cnc(C(=O)N2CC3CN(c4nc(C)c(C)c(C)n4)CC3C2)c(-n2nccn2)c1` (centres unmarked) [Example 444, 2-{[5-Methoxy-3-(2H-1,2,3-triazol-2-yl)pyridin-2-yl]carbonyl}-5-(4,5,6-trimethylpyrimidin-2-yl)octahydropyrrolo[3,4-c]pyrrole], the Ki at human orexin 2 receptor [1] was 20 nM.

As for `Cc1cc(C)nc(N2CC3CN(C(=O)c4c(F)cccc4-c4cscn4)CC3C2)n1` (centres unmarked) [Example 486, 2-(4,6-Dimethylpyrimidin-2-yl)-5-{[2-fluoro-6-(1,3-thiazol-4-yl)phenyl]carbonyl}octahydropyrrolo[3,4-c]pyrrole], the inhibitory constant (Ki) at human orexin 2 receptor [1] amounted to 15 nM.

Take `Cc1nc(N(C)C)cc(N2CC3CN(C(=O)c4cc(F)ccc4-c4ncccn4)CC3C2)n1` (centres unmarked) [Example 425, 6-{5-[(5-Fluoro-2-pyrimidin-2-ylphenyl)carbonyl]hexahydropyrrolo[3,4-c]pyrrol-2(1H)-yl}-N,N,2-trimethylpyrimidin-4-amine]: at human orexin 2 receptor [1], the Ki was 85 nM.

For the compound `CCOc1ccc(C)nc1C(=O)N1CC2CN(c3nc(C)cc(C)n3)CC2C1` (centres unmarked) [Example 414, 2-(4,6-Dimethylpyrimidin-2-yl)-5-[(3-ethoxy-6-methylpyridin-2-yl)carbonyl]octahydropyrrolo[3,4-c]pyrrole], the Ki at human orexin 2 receptor [1] came to 897 nM.

`Cc1ccnc(-c2cccc(F)c2C(=O)N2CC3CN(c4nc(C)cc(C)n4)CC3C2)c1` (centres unmarked) [Example 489, 2-(4,6-Dimethylpyrimidin-2-yl)-5-{[2-fluoro-6-(4-methylpyridin-2-yl)phenyl]carbonyl}octahydropyrrolo[3,4-c]pyrrole]: the Ki at human orexin 2 receptor [1] amounted to 45 nM.

As for `COc1ccc(C(=O)N2CC3CN(c4cnc5cc(F)c(F)cc5n4)CC3C2)c(-c2ncccn2)c1` (centres unmarked) [Example 459, 6,7-Difluoro-2-{5-[(4-methoxy-2-pyrimidin-2-ylphenyl)carbonyl]hexahydropyrrolo[3,4-c]pyrrol-2(1H)-yl}quinoxaline], at human orexin 2 receptor [1], the Ki was 38 nM.

In the case of `O=C(c1cccc(F)c1I)N1CC2CN(c3cnc4cc(F)c(F)cc4n3)CC2C1` (centres unmarked) [Example 449, 6,7-Difluoro-2-{5-[(3-fluoro-2-iodophenyl)carbonyl]hexahydropyrrolo[3,4-c]pyrrol-2(1H)-yl}quinoxaline], the Ki on human orexin 2 receptor [1] was 160 nM.

`O=C(c1cccc(F)c1-c1ncccc1F)N1CC2CN(c3cnc4cc(F)c(F)cc4n3)CC2C1` (centres unmarked) [Example 450, 6,7-Difluoro-2-[5-{[3-fluoro-2-(3-fluoropyridin-2-yl)phenyl]carbonyl}hexahydropyrrolo[3,4-c]pyrrol-2(1H)-yl]quinoxaline]: on human orexin 2 receptor [1], the Ki turned out to be 36 nM.

On to `Cc1cc(C)nc(N2CC3CN(C(=O)c4ccccc4-c4cn(Cc5ccccc5)nn4)CC3C2)n1` (centres unmarked) [Example 434, 2-{[2-(1-Benzyl-1H-1,2,3-triazol-4-yl)phenyl]carbonyl}-5-(4,6-dimethylpyrimidin-2-yl)octahydropyrrolo[3,4-c]pyrrole], for which the Ki at human orexin 2 receptor [1] is 394 nM.

For the compound `Cc1cc(C)nc(N2CC3CN(C(=O)c4nc(C)ccc4-c4ncc(C)o4)CC3C2)n1` (centres unmarked) [Example 422, 2-(4,6-Dimethylpyrimidin-2-yl)-5-{[6-methyl-3-(5-methyl-1,3-oxazol-2-yl)pyridin-2-yl]carbonyl}octahydropyrrolo[3,4-c]pyrrole], the Ki on human orexin 2 receptor [1] was 1050 nM.

As for `COc1ccnc(-c2cccc(F)c2C(=O)N2CC3CN(c4nc(C)cc(C)n4)CC3C2)n1` (centres unmarked) [Example 483, 2-(4,6-Dimethylpyrimidin-2-yl)-5-{[2-fluoro-6-(4-methoxypyrimidin-2-yl)phenyl]carbonyl}octahydropyrrolo[3,4-c]pyrrole], the Ki on human orexin 2 receptor [1] was found to be 11 nM.

`CCCOc1ccc(C)nc1C(=O)N1CC2CN(c3nc(C)cc(C)n3)CC2C1` (centres unmarked) [Example 419, 2-(4,6-Dimethylpyrimidin-2-yl)-5-[(6-methyl-3-propoxypyridin-2-yl)carbonyl]octahydropyrrolo[3,4-c]pyrrole]: the Ki on human orexin 2 receptor [1] amounted to 1070 nM.

Regarding `Cc1nc(N(C)C)cc(N2CC3CN(C(=O)c4cccc(F)c4-c4ncccn4)CC3C2)n1` (centres unmarked) [Example 427, 6-{5-[(3-Fluoro-2-pyrimidin-2-ylphenyl)carbonyl]hexahydropyrrolo[3,4-c]pyrrol-2(1H)-yl}-N, N,2-trimethylpyrimidin-4-amine], at human orexin 2 receptor [1], the Ki is 79 nM.

With `O=C(c1cccc(F)c1-c1[nH]ncc1F)N1CC2CN(c3cnc4cc(F)c(F)cc4n3)CC2C1` (centres unmarked) [Example 456, 6,7-Difluoro-2-[5-{[3-fluoro-2-(4-fluoro-1H-pyrazol-5-yl)phenyl]carbonyl}hexahydropyrrolo[3,4-c]pyrrol-2(1H)-yl]quinoxaline], on human orexin 2 receptor [1], the Ki came out at 31 nM.

On to `Cc1cc(C)nc(N2CC3CN(C(=O)c4c(F)cccc4C4=CC(=O)OC4)CC3C2)n1` (centres unmarked) [Example 480, 4-(2-{[5-(4,6-Dimethylpyrimidin-2-yl)hexahydropyrrolo[3,4-c]pyrrol-2(1H)-yl]carbonyl}-3-fluorophenyl)furan-2(5H)-one], for which the Ki at human orexin 2 receptor [1] amounted to 3810 nM.

For `Cc1cc(C)nc(N2CC3CN(C(=O)c4c(C)nc5sccn45)CC3C2)n1` (centres unmarked) [Example 464, 5-{[5-(4,6-Dimethylpyrimidin-2-yl)hexahydropyrrolo[3,4-c]pyrrol-2(1H)-yl]carbonyl}-6-methylimidazo[2,1-b][1,3]thiazole], the Ki on human orexin 2 receptor [1] was 3900 nM.

Regarding `COc1ccc(-n2nccn2)c(C(=O)N2CC3CN(c4cc(N(C)C)nc(C)n4)CC3C2)c1` (centres unmarked) [Example 423, 6-[5-{[5-Methoxy-2-(2H-1,2,3-triazol-2-yl)phenyl]carbonyl}hexahydropyrrolo[3,4-c]pyrrol-2(1H)-yl]-N,N,2-trimethylpyrimidin-4-amine], on human orexin 2 receptor [1], the Ki was found to be 182 nM.

For the compound `O=C(c1cccc(F)c1-c1ncco1)N1CC2CN(c3cnc4cc(F)c(F)cc4n3)CC2C1` (centres unmarked) [Example 451, 6,7-Difluoro-2-[5-{[3-fluoro-2-(1,3-oxazol-2-yl)phenyl]carbonyl}hexahydropyrrolo[3,4-c]pyrrol-2(1H)-yl]quinoxaline], at human orexin 2 receptor [1], the Ki turned out to be 29 nM.

`Cc1cc(C)nc(N2CC3CN(C(=O)c4cc(F)ccc4-c4cccn4C)CC3C2)n1` (centres unmarked) [Example 493, 2-(4,6-Dimethylpyrimidin-2-yl)-5-{[5-fluoro-2-(1-methyl-1H-pyrrol-2-yl)phenyl]carbonyl}octahydropyrrolo[3,4-c]pyrrole]: on human orexin 2 receptor [1], the Ki was determined as 10000 nM.

As to `Cc1cc(C)nc(N2CC3CN(C(=O)c4c(F)cccc4-c4cn(C)cn4)CC3C2)n1` (centres unmarked) [Example 482, 2-(4,6-Dimethylpyrimidin-2-yl)-5-{[2-fluoro-6-(1-methyl-1H-imidazol-4-yl)phenyl]carbonyl}octahydropyrrolo[3,4-c]pyrrole], at human orexin 2 receptor [1], the Ki came out at 30 nM.

As for `CCOc1ncccc1C(=O)N1CC2CN(c3cnc4cc(F)c(F)cc4n3)CC2C1` (centres unmarked) [Example 447, 2-{5-[(2-Ethoxypyridin-3 yl)carbonyl]hexahydropyrrolo[3,4-c]pyrrol-2(1H)-yl}-6,7-difluoroquinoxaline], the inhibition constant (Ki) at human orexin 2 receptor [1] came to 580 nM.

For `Cc1cc(C)nc(N2CC3CN(C(=O)c4c(F)cccc4-c4ncc(C)s4)CC3C2)n1` (centres unmarked) [Example 477, 2-(4,6-Dimethylpyrimidin-2-yl)-5-{[2-fluoro-6-(5-methyl-1,3-thiazol-2-yl)phenyl]carbonyl}octahydropyrrolo[3,4-c]pyrrole], the Ki at human orexin 2 receptor [1] was found to be 19 nM.

Turning to `Cc1nc(N(C)C)cc(N2CC3CN(C(=O)c4cccc(F)c4-n4nccn4)CC3C2)n1` (centres unmarked) [Example 416, 6-[5-{[3-Fluoro-2-(2H-1,2,3-triazol-2-yl)phenyl]carbonyl}hexahydropyrrolo[3,4-c]pyrrol-2(1H)-yl]-N,N,2-trimethylpyrimidin-4-amine], at human orexin 2 receptor [1], the Ki came out at 164 nM.
